Laboratory results taken from patent publication US5026848A, “Novel generation of heteroaryloxyalkyl heterocycles with antipicornaviruses activities” (Synphar Laboratories Incorporated, priority 1988, dated 1991).
In brackets after ≈: the same amount, converted by molar mass.

How the values were obtained:
WI38 cells = test: Toxicity to WI38 cells (change in morphology in / growth inhibition of 25% of the cells); format: cell-based
Rhinovirus 39 = test: Anti-rhinovirus activity, cytopathic effect inhibition / neutral red dye uptake, type 39; format: cell-based; conditions: Table I, WI38 cells, 33° C., 3-4 days; for EC50: Enterovirus, WI-38, read-out: MIC50 Rhinovirus 39
Rhinovirus 1A = test: Anti-rhinovirus activity, cytopathic effect inhibition / neutral red dye uptake, type 1A; format: cell-based; conditions: Table I, WI38 cells, 33° C., 3-4 days, NA = Not active; for EC50: Enterovirus, WI-38, read-out: MIC50 Rhinovirus 1A
HRV-1A and HRV-39 = test: Anti-rhinovirus activity against HRV-1A and HRV-39; conditions: in words
Rhinovirus 1B = test: Anti-rhinovirus activity, cytopathic effect inhibition / neutral red dye uptake, type 1B; format: cell-based; conditions: Enterovirus, WI-38; Table II; one of seven commonest serotypes; read-out: MIC 50 Rhinovirus Type 1B
Rhinovirus 4 = test: Anti-rhinovirus activity, cytopathic effect inhibition / neutral red dye uptake, type 4; format: cell-based; conditions: Enterovirus, WI-38; Table II; one of seven commonest serotypes; read-out: MIC 50 Rhinovirus Type 4
Rhinovirus 15 = test: Anti-rhinovirus activity, cytopathic effect inhibition / neutral red dye uptake, type 15; format: cell-based; conditions: Enterovirus, WI-38; Table II; one of seven commonest serotypes; read-out: MIC 50 Rhinovirus Type 15
Rhinovirus 31 = test: Anti-rhinovirus activity, cytopathic effect inhibition / neutral red dye uptake, type 31; format: cell-based; conditions: Enterovirus, WI-38; Table II; one of seven commonest serotypes; read-out: MIC 50 Rhinovirus Type 31
[1] = test system: 20 serotypes of rhinovirus; test: Anti-rhinovirus activity against a panel of 20 serotypes; conditions: Table II; numerator; denominator 20, but 10 for compound 8 and 6 for compound 30
Rhinovirus 17 = test: Anti-rhinovirus activity, cytopathic effect inhibition / neutral red dye uptake, type 17; format: cell-based; conditions: Enterovirus, WI-38; Table II; read-out: MIC 50 Rhinovirus Type 17
Rhinovirus 29 = test: Anti-rhinovirus activity, cytopathic effect inhibition / neutral red dye uptake, type 29; format: cell-based; conditions: Enterovirus, WI-38; Table II; one of seven commonest serotypes; read-out: MIC 50 Rhinovirus Type 29
Rhinovirus 36 = test: Anti-rhinovirus activity, cytopathic effect inhibition / neutral red dye uptake, type 36; format: cell-based; conditions: Enterovirus, WI-38; Table II; read-out: MIC 50 Rhinovirus Type 36
Rhinovirus 86 = test: Anti-rhinovirus activity, cytopathic effect inhibition / neutral red dye uptake, type 86; format: cell-based; conditions: Enterovirus, WI-38; Table II; read-out: MIC 50 Rhinovirus Type 86
Polio 1 = test: microbe, parasite or virus in culture; format: cell-based; conditions: Enterovirus, read-out: MIC 50 Polio 1
Coxsacki-A21 = test: Activity against other picornaviruses, Coxsacki-A21; format: cell-based; conditions: Enterovirus, read-out: MIC 50 Cox. A21
Coxsacki-B1 = test: Activity against other picornaviruses, Coxsacki-B1; format: cell-based; conditions: Enterovirus, read-out: MIC 50 Cox. B1
Echo-7 = test: Activity against other picornaviruses, Echo-7; format: cell-based; conditions: Enterovirus, read-out: MIC 50 Echo 7
Echo-11 = test: Activity against other picornaviruses, Echo-11; format: cell-based; conditions: Enterovirus, read-out: MIC 50 Echo 11
Enterovirus serotypes = format: cell-based; conditions: Table III; numerator; denominator 7, but 5 for compound 8
[2] = Table I, concentration with change in morphology in 25% of WI38 cells

Compound | Toxicity (WI38 cells; [2]) | EC50 (Rhinovirus 39) | EC50 (Rhinovirus 1A) | inhibitory activity against HRV-1A and HRV-39 in vitro (HRV-1A and HRV-39) | further results
Cc1cc(CCCCCCCOC2c3ccccc3-c3ccccc32)on1 [Compound 29, 5-[7-(fluorene-9-yloxy)-heptyl]-3-methylisoxazole] | > 50 µg/mL | 25 µg/mL (≈ 69.2 µM) |  |  | 
Cc1cnsc1CCCCCCOc1cccc2ccccc12 [Compound 22, 5-[6-(1-napthyl)oxyhexyl]-4-methylisothiazole] | > 50 µg/mL | 25 µg/mL (≈ 76.8 µM) | 25 µg/mL (≈ 76.8 µM) |  | 
Cc1csc(CCCCCCCOc2cc(C)nc3ccccc23)n1 [Compound 16] | 25 µg/mL | 5 µg/mL (≈ 14.1 µM) |  | remarkably inhibitory activity | 
Cc1cc(CCCCCCCOc2cc(C)c3ccccc3n2)on1 [Compound 10, 5-[7-(4-methylquinolin-2-yl)oxyheptyl]-3-methylisoxazole] | 50 µg/mL | 25 µg/mL (≈ 73.9 µM) | 25 µg/mL (≈ 73.9 µM) |  | 
Cc1cc(CCCCCCCOc2nc3ccccc3[nH]2)on1 [Compound 11, 5-[7-(benzimidazol-2-yl)oxyheptyl]-3-methylisoxazole] | 50 µg/mL | 10 µg/mL (≈ 31.9 µM) | 25 µg/mL (≈ 79.8 µM) |  | 
Cc1cc(OCCCCCCc2ccns2)c2ccccc2n1 [Compound 26, 5-[6-(2-methylquinoline-4-yl)oxyhexyl]isothiazole] |  |  |  | remarkably inhibitory activity | 
Cc1cc(OCCCCCCc2c(Cl)cnn2-c2ccccc2)c2ccccc2n1 [Compound 35, 4-chloro-5-[6-(2-methylqinolin-4-yl)oxyhexyl]phenylpyrazole] |  |  |  | remarkably inhibitory activity | 
Cc1cc(CCCCCCCOc2ccc3ccccc3c2)on1 [Compound 13, 5-[7-(2-naphthyl)oxyheptyl]-3-methylisoxazole] | 50 µg/mL | 10 µg/mL (≈ 30.9 µM) | 25 µg/mL (≈ 77.3 µM) | remarkably inhibitory activity | 
Cc1cc(CCCCCCCOC23CC4CC(CC(C4)C2)C3)on1 [Compound 12, 5-[7-(Adamantanol-1-yl)oxyheptyl]-3-methylisoxazole] | 50 µg/mL | 10 µg/mL (≈ 30.2 µM) | 25 µg/mL (≈ 75.4 µM) |  | 
Cc1cnsc1CCCCCCOc1cccc2ccccc12 |  |  |  | remarkably inhibitory activity | 
c1ccc(-n2nccc2CCCCCCOc2ccc3ccccc3c2)cc1 [Compound 32, 5-[6-(2-naphthyl)-oxyhexyl]-1-phenylpyrazole] | 50 µg/mL | 25 µg/mL (≈ 67.5 µM) | 25 µg/mL (≈ 67.5 µM) | remarkably inhibitory activity | 
Cc1cc(CCCCCCCOc2cccc3ccccc23)on1 [Compound 14, 5-[7-(1-naphthyl)oxyheptyl]-3-methylisoxazole] | > 50 µg/mL | 25 µg/mL (≈ 77.3 µM) | 25 µg/mL (≈ 77.3 µM) | remarkably inhibitory activity | 
Cc1cc(OCCCCCCc2sncc2C)c2ccccc2n1 [Compound 20, 5-[6-(2-methylquinolin-4-yl)oxyhexyl]-4-methylisothiazole] |  |  |  | remarkably inhibitory activity | 
Cc1cc(CCCCCCCON2C(=O)COc3c2ccc2ccccc32)on1 [Compound 6, 5-[7-(2,3-dihydro-3-oxo-4H-napth[1,2-b]-1,4-oxazin-4-yl)oxyheptyl]-3-methylisoxazole] | > 50 µg/mL | 50 µg/mL (≈ 127 µM) | 50 µg/mL (≈ 127 µM) | remarkably inhibitory activity | 
Cc1cnsc1CCCCCCOc1ccc2ccccc2c1 [Compound 21, 5-[6-(2-napthyl)oxyhexyl]-4-methylisothiazole] | 50 µg/mL | 10 µg/mL (≈ 30.7 µM) | 25 µg/mL (≈ 76.8 µM) |  | 
c1ccc(-n2nccc2CCCCCCOc2ccc3oc4ccccc4c3c2)cc1 [Compound 30] | > 50 µg/mL | 5 µg/mL (≈ 12.2 µM) | 10 µg/mL (≈ 24.4 µM) | remarkably inhibitory activity | Toxicity (WI38 cells; Table II): > 50 µg/mL; IC50 (Rhinovirus 1B): 10 µg/mL (≈ 24.4 µM); IC50 (Rhinovirus 4): 10 µg/mL (≈ 24.4 µM); IC50 (Rhinovirus 15): 5 µg/mL (≈ 12.2 µM); EC50 (Rhinovirus 31): > 25 µg/mL; All Rhinovirus Serotypes (number of serotypes active / tested) [1]: 5
Cc1cc(CCCCCCCOc2ccc3c(c2)[nH]c2ccccc23)on1 [Compound 8, 5-[7-(carbazol-2-yl)oxyheptyl]-3-methylisoxazole] | 25 µg/mL | 10 µg/mL (≈ 27.6 µM) | 10 µg/mL (≈ 27.6 µM) | remarkably inhibitory activity | Toxicity (WI38 cells; Table II): 25 µg/mL; Toxicity (WI38 cells; Table III): 25 µg/mL; IC50 (Rhinovirus 1B): 5 µg/mL (≈ 13.8 µM); IC50 (Rhinovirus 4): > 25 µg/mL; IC50 (Rhinovirus 15): > 25 µg/mL; IC50 (Rhinovirus 17): > 25 µg/mL; IC50 (Rhinovirus 29): > 25 µg/mL; EC50 (Rhinovirus 31): 1 µg/mL (≈ 2.76 µM); EC50 (Rhinovirus 36): > 25 µg/mL; EC50 (Rhinovirus 86): > 25 µg/mL; EC50 (Polio 1): > 25 µg/mL; IC50 (Coxsacki-A21): > 25 µg/mL; IC50 (Coxsacki-B1): > 25 µg/mL; IC50 (Echo-7): > 25 µg/mL; IC50 (Echo-11): > 25 µg/mL; All Enterovirus Serotypes (number of serotypes active / tested) (Enterovirus serotypes): 0; All Rhinovirus Serotypes (number of serotypes active / tested) [1]: 4
5-[7-(2-Naphthyl)oxyheptyl]-3-methylthiazole [Compound 18] | > 50 µg/mL |  |  |  | MIC50 Rhinovirus 1A (Rhinovirus 1A): 25 µg/mL; MIC50 Rhinovirus 39 (Rhinovirus 39): 25 µg/mL
Cc1cc(OCCCCCCc2ccnn2-c2ccccc2)c2ccccc2n1 [Compound 31, 5-[6-(2-methylquinolin-4-yl)oxyhexyl]-1-phenylpyrazole] | 25 µg/mL | 10 µg/mL (≈ 25.9 µM) | 10 µg/mL (≈ 25.9 µM) | remarkably inhibitory activity | 
c1ccc(-n2nccc2CCCCCCOc2cccc3ccccc23)cc1 [Compound 33, 5-[6-(1-naphthyl)oxyhexyl]-1-phenylpyrazole] |  |  |  | remarkably inhibitory activity | 
5-[7-(fluoren-9-yl)oxyheptyl]-3-methylthiazole |  |  |  | remarkably inhibitory activity | 
Cc1cc(CCCCCCCOc2ccc(-n3cncn3)cc2)on1 [Compound 3, 5-{7-[4-(1,2,4-triazol-1-yl)phenoxy]heptyl}-3-methylisoxazole] | 750 µg/mL | 50 µg/mL (≈ 147 µM) | 50 µg/mL (≈ 147 µM) | remarkably inhibitory activity | 
